# In ChEMBL document CHEMBL1151359, “Effects of Tetracyclic and Pentacyclic Triterpenoids on Growth of Phytophthora cactorum” (1981):
# The source made the active and inactive calls. No cut-off for these calls is given here.
# How the values were obtained:
# Phytophthora cactorum [1] = assay: Antifungal activity against Phytophthora cactorum at 10 mg/L in liquid culture medium; format: functional, organism-based
# Phytophthora cactorum [2] = assay: Growth promotion activity in Phytophthora cactorum at 10 mg/L in liquid culture medium; format: functional, organism-based
# Phytophthora cactorum [3] = assay: Growth promotion activity of Phytophthora cactorum assessed as mycelial dry weight at 10 mg/L after 18 days in liquid culture medium; format: functional
# Phytophthora cactorum [4] = assay: Effect on Phytophthora cactorum growth assessed as colony diameter at 10 mg/L after 6 days in solid culture medium; format: functional
# Phytophthora cactorum [5] = assay: Growth promotion activity of Phytophthora cactorum assessed as mycelial dry weight at 10 mg/L after 12 days in liquid culture medium; format: functional
SMILES,Activity (Phytophthora cactorum [1]),Activity (Phytophthora cactorum [4]) [mm],also measured
CC(C)(O)/C=C/C(=O)[C@](C)(O)[C@H]1[C@H](O)C[C@@]2(C)[C@@H]3CC=C4[C@@H](C[C@H](O)C(=O)C4(C)C)[C@]3(C)C(=O)C[C@]12C,Active,–,–
CC(C)CCC[C@@H](C)[C@H]1CC[C@H]2[C@@H]3CC=C4C[C@@H](O)CC[C@]4(C)[C@H]3CC[C@]12C,–,–,Activity (Phytophthora cactorum [2]): Active
CC1(C)CC[C@]2(C)CC[C@]3(C)C(=CC[C@@H]4[C@@]5(C)CC[C@H](O)C(C)(C)[C@@H]5CC[C@]43C)[C@@H]2C1 [beta-AMYRIN],–,35,Activity (Phytophthora cactorum [2]): Active; Activity (Phytophthora cactorum [3]): 135 mg
CC(=O)OC(C)(C)/C=C/C(=O)[C@](C)(O)[C@H]1[C@H](O)C[C@@]2(C)[C@@H]3CC=C4[C@H](C[C@H](O)C(=O)C4(C)C)[C@]3(C)C(=O)C[C@]12C,Active,–,–
C[C@H]1[C@H](C)CC[C@]2(C)CC[C@]3(C)C(=CC[C@@H]4[C@@]5(C)CC[C@H](O)C(C)(C)[C@@H]5CC[C@]43C)[C@H]12,–,–,Activity (Phytophthora cactorum [2]): Active
C[C@H]1C(=O)CC[C@@H]2[C@]1(C)CC[C@H]1[C@@]2(C)CC[C@@]2(C)[C@@H]3CC(C)(C)CC[C@]3(C)CC[C@]12C,Active,–,–
CC1(C)CC[C@]2(C(=O)O)CC[C@]3(C)C(=CC[C@@H]4[C@@]5(C)CC[C@H](O)C(C)(C)[C@@H]5CC[C@]43C)[C@@H]2C1 [OLEANOLIC_ACID],–,29,–
CC1(C)CCC[C@]2(C)[C@H]3CC[C@@H]4[C@@]5(C)CC[C@H](O)C(C)(C)[C@@H]5CC[C@@]4(C)[C@]3(C)CC[C@@H]12 [TETRAHYMANOL],–,–,Activity (Phytophthora cactorum [2]): Active; Activity (Phytophthora cactorum [3]): 135 mg
CC(=O)OC(C)(C)/C=C/C(=O)[C@](C)(O)[C@H]1[C@H](O)C[C@@]2(C)[C@@H]3CC=C4[C@@H](C=C(O)C(=O)C4(C)C)[C@]3(C)C(=O)C[C@]12C,Active,–,–
CC(=O)OC(C)(C)/C=C/C(=O)[C@](C)(O)[C@H]1[C@H](O)C[C@@]2(C)[C@@H]3CC=C4[C@@H](C[C@H](O)C(=O)C4(C)C)[C@]3(CO)C(=O)C[C@]12C,Active,–,–
C=C(C)[C@@H]1CC[C@]2(CO)CC[C@]3(C)[C@H](CC[C@@H]4[C@@]5(C)CC[C@H](O)C(C)(C)[C@@H]5CC[C@]43C)[C@@H]12 [BETULIN],–,30.5,–
CC(C)=CCC[C@@H](C)[C@H]1CC[C@@]2(C)C3=C(CC[C@]12C)[C@@]1(C)CC[C@H](O)C(C)(C)[C@@H]1CC3 [LANOSTEROL],–,30.5,–
C=C(C)[C@@H]1CC[C@]2(C)CC[C@]3(C)[C@H](CC[C@@H]4[C@@]5(C)CC[C@H](O)C(C)(C)[C@@H]5CC[C@]43C)[C@@H]12 [LUPEOL],–,29.5,–
CC[C@H](CC[C@@H](C)[C@H]1CC[C@H]2[C@@H]3CC=C4C[C@@H](O)CC[C@]4(C)[C@H]3CC[C@]12C)C(C)C [BETA-SITOSTEROL],–,35,Activity (Phytophthora cactorum [5]): 125 mg; Activity (Phytophthora cactorum [3]): 200 mg
C=C(C)[C@@H]1CC[C@]2(C)CC[C@]3(C)[C@H](CC[C@@H]4[C@@]5(C)CCC(=O)C(C)(C)[C@@H]5CC[C@]43C)[C@@H]12,Active,–,–
CC(C)=CCC[C@@H](C)[C@H]1CC[C@@]2(C)[C@@H]3CC[C@H]4C(C)(C)[C@@H](O)CC[C@@]45C[C@@]35CC[C@]12C [CYCLOARTENOL],–,31,–
CC(=O)OC(C)(C)/C=C/C(=O)[C@](C)(O)[C@H]1[C@H](O)C[C@@]2(C)[C@@H]3CC=C4[C@@H](CC[C@@H](O)C4(C)C)[C@]3(CO)C(=O)C[C@]12C [CUCURBITACIN C],Active,28,–
CC(C)[C@H](C)CC[C@@H](C)[C@H]1CC[C@H]2[C@@H]3CC=C4C[C@@H](O)CC[C@]4(C)[C@H]3CC[C@]12C [CAMPESTEROL],–,–,Activity (Phytophthora cactorum [5]): 125 mg; Activity (Phytophthora cactorum [3]): 200 mg
C=C(C)[C@H]1CC[C@]2(C)[C@H]3CC[C@@H]4[C@@]5(C)CCCC(C)(C)[C@@H]5CC[C@@]4(C)[C@]3(C)CC[C@@H]12,Active,30,–
